{
  "source": "paper PMC11233931",
  "about": "“Remodeling tumor‐associated macrophage for anti‐cancer effects by rational design of irreversible inhibition of mitogen‐activated protein kinase‐activated protein kinase 2” (MedComm, 2024)",
  "experiment_in_all_cases": "Eurofins kinase selectivity profile against 380 other human recombinant kinases (Table S2)",
  "assay_type_in_all_cases": "biochemical",
  "key": {"[1]": {"target": "T1, 380 human recombinant protein kinases (Homo sapiens, UniProt O00506)", "T1 construct": "purchased Eurofins (Celle Lévescault)", "T1 sequence (O00506 whole entry)": "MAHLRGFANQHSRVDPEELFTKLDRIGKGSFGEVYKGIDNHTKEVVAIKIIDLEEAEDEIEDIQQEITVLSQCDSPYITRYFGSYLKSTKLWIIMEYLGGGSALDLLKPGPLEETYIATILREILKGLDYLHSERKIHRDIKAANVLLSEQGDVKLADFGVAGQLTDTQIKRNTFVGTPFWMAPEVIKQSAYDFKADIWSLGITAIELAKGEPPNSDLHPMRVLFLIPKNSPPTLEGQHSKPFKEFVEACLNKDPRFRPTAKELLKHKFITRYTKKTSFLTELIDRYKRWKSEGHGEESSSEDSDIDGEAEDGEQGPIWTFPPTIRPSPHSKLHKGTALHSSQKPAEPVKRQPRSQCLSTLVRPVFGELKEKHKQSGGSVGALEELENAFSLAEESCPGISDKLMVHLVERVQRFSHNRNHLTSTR", "conditions": "STK25(h), read-out: Inhibition rate (%)", "in_short": "(§1)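 The inhibitor was sent to a contract lab and screened at various concentrations against 380 human recombinant protein kinases. This served as a counter-screen for MK2 specificity.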"}, "[2]": {"target": "T2, 380 human recombinant protein kinases (Homo sapiens, UniProt P24941)", "T2 construct": "purchased Eurofins (Celle Lévescault)", "conditions": "read-out: Inhibition rate; for inhibition at 0.01 µM: 10 nM; for inhibition at 0.1 µM: 100 nM; for inhibition at 1 µM: 1000 nM", "in_short": "as §1"}, "[3]": {"target": "T3, 380 human recombinant protein kinases (Homo sapiens, UniProt P78362)", "T3 construct": "purchased Eurofins (Celle Lévescault)", "T3 sequence (P78362 whole entry)": "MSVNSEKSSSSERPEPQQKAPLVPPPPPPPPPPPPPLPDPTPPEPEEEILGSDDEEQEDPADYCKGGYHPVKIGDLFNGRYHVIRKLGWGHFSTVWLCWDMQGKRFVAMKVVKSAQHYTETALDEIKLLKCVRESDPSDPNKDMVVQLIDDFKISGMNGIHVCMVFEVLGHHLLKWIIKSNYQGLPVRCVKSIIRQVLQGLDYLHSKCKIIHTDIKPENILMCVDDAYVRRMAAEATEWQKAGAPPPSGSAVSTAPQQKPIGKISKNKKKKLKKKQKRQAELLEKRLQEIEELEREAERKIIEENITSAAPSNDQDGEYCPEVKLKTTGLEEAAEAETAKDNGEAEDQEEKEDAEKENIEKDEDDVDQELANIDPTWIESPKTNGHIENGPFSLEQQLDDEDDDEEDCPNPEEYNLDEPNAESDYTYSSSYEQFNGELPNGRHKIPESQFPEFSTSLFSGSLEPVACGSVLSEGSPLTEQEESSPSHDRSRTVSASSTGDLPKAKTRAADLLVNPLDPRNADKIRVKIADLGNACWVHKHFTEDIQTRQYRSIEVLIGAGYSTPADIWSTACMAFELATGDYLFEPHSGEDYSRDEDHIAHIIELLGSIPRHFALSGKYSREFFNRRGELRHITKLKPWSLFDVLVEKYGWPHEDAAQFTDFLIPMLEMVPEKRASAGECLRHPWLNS", "conditions": "SRPK2(h), read-out: Inhibition rate (%)", "in_short": "as §1"}, "[4]": {"target": "T4, 380 human recombinant protein kinases (Homo sapiens, UniProt Q13546)", "T4 construct": "purchased Eurofins (Celle Lévescault)", "T4 sequence (Q13546 1-671)": "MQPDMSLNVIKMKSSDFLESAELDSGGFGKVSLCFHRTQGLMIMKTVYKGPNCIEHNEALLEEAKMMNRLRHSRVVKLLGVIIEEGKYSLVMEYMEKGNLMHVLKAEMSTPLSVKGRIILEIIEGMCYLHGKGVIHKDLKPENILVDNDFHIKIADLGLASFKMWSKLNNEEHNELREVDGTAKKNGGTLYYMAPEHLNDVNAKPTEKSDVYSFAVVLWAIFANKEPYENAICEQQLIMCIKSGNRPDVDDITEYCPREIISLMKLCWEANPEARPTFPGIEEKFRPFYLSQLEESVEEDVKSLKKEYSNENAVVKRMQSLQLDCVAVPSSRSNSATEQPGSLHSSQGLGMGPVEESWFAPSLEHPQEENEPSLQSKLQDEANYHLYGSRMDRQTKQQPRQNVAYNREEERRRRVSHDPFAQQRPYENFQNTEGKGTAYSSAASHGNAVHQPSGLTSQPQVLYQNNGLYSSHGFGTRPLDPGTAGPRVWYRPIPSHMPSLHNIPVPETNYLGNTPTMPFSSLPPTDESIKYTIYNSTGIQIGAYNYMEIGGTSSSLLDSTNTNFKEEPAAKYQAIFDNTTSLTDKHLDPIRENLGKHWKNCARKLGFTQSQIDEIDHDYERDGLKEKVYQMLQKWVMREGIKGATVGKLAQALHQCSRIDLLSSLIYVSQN", "conditions": "RIPK1(h), read-out: Inhibition rate", "in_short": "as §1"}, "[5]": {"target": "T5, 380 human recombinant protein kinases (Homo sapiens, UniProt Q16288)", "T5 construct": "purchased Eurofins (Celle Lévescault)", "T5 sequence (Q16288 32-839)": "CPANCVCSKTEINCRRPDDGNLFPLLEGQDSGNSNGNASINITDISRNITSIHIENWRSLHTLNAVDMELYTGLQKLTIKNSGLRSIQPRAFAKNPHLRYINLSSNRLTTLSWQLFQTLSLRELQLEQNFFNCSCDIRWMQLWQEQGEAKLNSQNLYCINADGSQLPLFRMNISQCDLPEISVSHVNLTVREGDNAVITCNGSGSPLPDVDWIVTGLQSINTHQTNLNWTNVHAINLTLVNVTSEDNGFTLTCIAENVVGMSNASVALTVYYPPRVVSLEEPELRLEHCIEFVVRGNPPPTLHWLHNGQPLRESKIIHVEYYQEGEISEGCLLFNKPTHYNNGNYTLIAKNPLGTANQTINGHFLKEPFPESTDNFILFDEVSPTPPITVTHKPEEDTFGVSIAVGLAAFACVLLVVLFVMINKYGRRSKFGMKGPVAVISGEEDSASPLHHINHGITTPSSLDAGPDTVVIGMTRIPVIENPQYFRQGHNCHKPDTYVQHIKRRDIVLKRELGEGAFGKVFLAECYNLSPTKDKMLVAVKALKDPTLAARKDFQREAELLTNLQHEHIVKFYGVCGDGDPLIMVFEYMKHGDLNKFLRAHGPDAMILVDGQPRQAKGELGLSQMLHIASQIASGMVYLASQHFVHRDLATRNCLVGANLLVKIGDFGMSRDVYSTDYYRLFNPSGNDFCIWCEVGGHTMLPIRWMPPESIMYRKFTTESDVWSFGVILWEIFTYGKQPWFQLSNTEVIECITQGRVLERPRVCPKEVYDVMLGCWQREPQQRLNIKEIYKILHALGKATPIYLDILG", "conditions": "TrkC(h), read-out: Inhibition rate (%)", "in_short": "as §1"}, "[6]": {"target": "T6, 380 human recombinant protein kinases (Homo sapiens, UniProt Q16832)", "T6 construct": "purchased Eurofins (Celle Lévescault)", "T6 sequence (Q16832 22-855)": "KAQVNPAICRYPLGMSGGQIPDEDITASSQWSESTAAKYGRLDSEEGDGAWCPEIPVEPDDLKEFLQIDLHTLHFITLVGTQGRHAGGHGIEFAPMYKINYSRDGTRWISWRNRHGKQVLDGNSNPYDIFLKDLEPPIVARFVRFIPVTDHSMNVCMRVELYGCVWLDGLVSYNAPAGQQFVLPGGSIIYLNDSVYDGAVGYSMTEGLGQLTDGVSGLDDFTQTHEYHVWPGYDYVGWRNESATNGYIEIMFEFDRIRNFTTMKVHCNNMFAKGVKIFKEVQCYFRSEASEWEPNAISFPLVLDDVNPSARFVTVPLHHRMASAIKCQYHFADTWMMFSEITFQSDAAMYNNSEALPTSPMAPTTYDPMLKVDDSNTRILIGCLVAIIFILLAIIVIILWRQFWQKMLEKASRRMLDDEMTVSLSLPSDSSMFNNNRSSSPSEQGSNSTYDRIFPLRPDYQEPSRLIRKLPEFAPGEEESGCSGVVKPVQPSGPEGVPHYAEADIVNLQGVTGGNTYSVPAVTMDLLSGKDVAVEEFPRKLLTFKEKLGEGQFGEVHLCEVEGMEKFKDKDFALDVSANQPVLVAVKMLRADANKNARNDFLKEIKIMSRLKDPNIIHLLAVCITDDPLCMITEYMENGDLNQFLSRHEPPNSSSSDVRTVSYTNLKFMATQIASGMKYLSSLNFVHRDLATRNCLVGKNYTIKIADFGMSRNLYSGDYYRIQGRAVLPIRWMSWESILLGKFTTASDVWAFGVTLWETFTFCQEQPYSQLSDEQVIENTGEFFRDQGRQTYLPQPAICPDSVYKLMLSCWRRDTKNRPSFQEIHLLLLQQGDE", "conditions": "DDR2(h), read-out: Inhibition rate", "in_short": "as §1"}},
  "note": "Where two headings read alike, the source gives them in different places.",
  "data": [
    {"smiles": "C=CC(=O)Nc1cc(-c2cc(-c3cc4c([nH]3)CCNC4=O)ccn2)ccc1OC(F)(F)F", "note": "[compound 11]", "values": [
      {"measurement": "inhibition at 0.01 µM", "setting": "[1]; 10 nM", "value": -4, "unit": "%"},
      {"measurement": "inhibition at 0.1 µM", "setting": "[1]; 100 nM", "value": 1, "unit": "%"},
      {"measurement": "inhibition at 1 µM", "setting": "[1]; 1000 nM", "value": 0, "unit": "%"},
      {"measurement": "inhibition at 0.01 µM", "setting": "[2]; CDK2/cyclinA(h)", "value": -5, "unit": "%"},
      {"measurement": "inhibition at 0.1 µM", "setting": "[2]; CDK2/cyclinA(h)", "value": 0, "unit": "%"},
      {"measurement": "inhibition at 1 µM", "setting": "[2]; CDK2/cyclinA(h)", "value": 7, "unit": "%"},
      {"measurement": "inhibition at 0.01 µM", "setting": "[2]; CDK2/cyclinE(h)", "value": -3, "unit": "%"},
      {"measurement": "inhibition at 0.1 µM", "setting": "[2]; CDK2/cyclinE(h)", "value": 1, "unit": "%"},
      {"measurement": "inhibition at 1 µM", "setting": "[2]; CDK2/cyclinE(h)", "value": -1, "unit": "%"},
      {"measurement": "inhibition at 0.01 µM", "setting": "[3]; 10 nM", "value": 7, "unit": "%"},
      {"measurement": "inhibition at 0.1 µM", "setting": "[3]; 100 nM", "value": -1, "unit": "%"},
      {"measurement": "inhibition at 1 µM", "setting": "[3]; 1000 nM", "value": 6, "unit": "%"},
      {"measurement": "inhibition at 0.01 µM", "setting": "[4]; 10 nM", "value": -7, "unit": "%"},
      {"measurement": "inhibition at 0.1 µM", "setting": "[4]; 100 nM", "value": -3, "unit": "%"},
      {"measurement": "inhibition at 1 µM", "setting": "[4]; 1000 nM", "value": 3, "unit": "%"},
      {"measurement": "inhibition at 0.01 µM", "setting": "[5]; 10 nM", "value": -3, "unit": "%"},
      {"measurement": "inhibition at 0.1 µM", "setting": "[5]; 100 nM", "value": 4, "unit": "%"},
      {"measurement": "inhibition at 1 µM", "setting": "[5]; 1000 nM", "value": -3, "unit": "%"},
      {"measurement": "inhibition at 0.01 µM", "setting": "[6]; 10 nM", "value": -7, "unit": "%"},
      {"measurement": "inhibition at 0.1 µM", "setting": "[6]; 100 nM", "value": -10, "unit": "%"},
      {"measurement": "inhibition at 1 µM", "setting": "[6]; 1000 nM", "value": -10, "unit": "%"}
    ]}
  ]
}
